Results as given in patent US20110152267A1, “Compositions and Methods for Treating Hyperproliferative Disorders” (Texas Tech University System, priority 2009, published 2011).

Columns and labels:
Format in all cases: cell-based, human
[1] = system: PANC-1 pancreatic adenocarcinoma cell line; assay: DIMSCAN cytotoxicity, fenretinide + L-threo-sphinganines 3:1 (Example B18)
Procedure: (§1) Cytotoxicity Assay—Once again, cytotoxicity is determined using the DIMSCAN assay system (R. Proffitt et al., Cytometry 24, 204-213 (1996); T. Frgala et al., Mol Cancer Ther. 6:886-97, 2007). The system employs digital imaging microscopy to quantify viable cells, which selectively accumulate fluorescein diacetate to become brightly fluorescent. The system is capable of measuring cytotoxicity over a 4-5 log dynamic range by quenching the residual fluorescence of dead and dying cells with eosin Y and quantifying the total fluorescence of viable cells using digital thresholding. Measured fluorescence is directly proportionate to the number of viable cells. A comparison of the total fluorescence of a drug-treated cell population to the fluorescence of a similar number of untreated cells yields a survival fraction. In brief, 2000 to 10,000 cells/well (depending on size and growth rates) are replicate plated into 60 wells of a 96-well tissue culture plate in 0.1 mL of whole medium and allowed to attach overnight. Drug(s) are then added in 0.05 mL of whole medium to the final concentrations indicated. Drugs (fenretinide, and various chain length L-threo-sphinganines) were tested both as single agents and in a 3:1 ratio of fenretinide:sphinganine. C18-L-threo-sphinganine, or “safingol,” was also tested and results shown for reference. There are 12 wells treated per drug concentration. Twelve wells receive drug vehicle-only to the appropriate final concentration and serve as controls for the plate. Cells are incubated for 96 hours at 37° C. in ambient air with 5% CO2. Fluorescein diacetate is then added to each well in 0.05 mL media to a final concentration of 8 microgram/mL. Cells are incubated for a further 15 minutes at 37° C. and 0.03 mL of 0.5% eosin Y is added to each well. Total fluorescence of viable cells is then measured by digital imaging microscopy. Results were graphed as the ratio of the fluoresecence of drug-treated wells to non-drug treated control wells (i.e., Survival Fraction). All tests were performed at least twice. Representative results are shown.
(§2) The Combination Index (CI) is a term to describe mathematical modeling of the pharmacologic effects on cytotoxicity (cell death) of two drugs in combination based. Cytotoxic “synergy” is defined as a cell death affect which is greater than would be expected from a simple product of the single agent cytotoxicities alone (i.e. an “additive” effect). By Chou-Talalay analysis, a CI<0.9 on a Fraction Affected (“Fa”, i.e. fraction of cells killed) indicates synergy, with smaller numbers indicating greater synergy; a CI of 0.9-1.1 signifies an additive or near-additive effect; and a CI>1.1 means the drug combination is antagonistic.
Fenretinide and L-threo-sphinganines tested in human pancreatic adenocarcinoma (pancreas cancer) cell line, PANC-1.

[2] = system: A-172 Glioblastoma multiforme cell line; assay: DIMSCAN cytotoxicity, fenretinide + L-threo-sphinganines 3:1 (Example B4); parameters: key to CI (Combination Index): Chou-Talalay CI: <0.9 synergy, 0.9-1.1 additive, >1.1 antagonism; conditions: 96 h
Procedure: as §1, §2
Fenretinide and L-threo-sphinganines tested in human Glioblastoma multiforme (brain cancer) cell line, A-172.

[3] = system: SJ-G2 Glioblastoma cell line; assay: DIMSCAN cytotoxicity, fenretinide + L-threo-sphinganines 3:1 (Example B8); conditions: 96 h
Procedure: as §1, §2
Fenretinide and L-threo-sphinganines tested in human Glioblastoma (brain cancer) cell line, SJ-G2.

[4] = system: U-266 Multiple Myeloma cell line; assay: DIMSCAN cytotoxicity, fenretinide + L-threo-sphinganines 3:1 (Example B3); conditions: 96 h
Procedure: as §1, §2
Fenretinide and L-threo-sphinganines tested in human Multiple Myeloma (a cancer of the blood and bone marrow) cell line, U-266.

[5] = system: PC-3 prostate adenocarcinoma cell line; assay: DIMSCAN cytotoxicity, fenretinide + L-threo-sphinganines 3:1 (Example B17)
Procedure: as §1, §2
Fenretinide and L-threo-sphinganines tested in human prostate adenocarcinoma (prostate cancer) cell line, PC-3.

[6] = system: SJ-GBM2 Glioblastoma multiforme cell line; assay: DIMSCAN cytotoxicity, fenretinide + L-threo-sphinganines 3:1 (Example B7); parameters: key to CI (Combination Index): Chou-Talalay CI: <0.9 synergy, 0.9-1.1 additive, >1.1 antagonism; conditions: 96 h
Procedure: as §1, §2
Fenretinide and L-threo-sphinganines tested in human Glioblastoma multiforme (brain cancer) cell line, SJ-GBM2.

[7] = system: RPMI-8226 Multiple Myeloma cell line; assay: DIMSCAN cytotoxicity, fenretinide + L-threo-sphinganines 3:1 (Example B2); conditions: 96 h
Procedure: as §1, §2
Fenretinide and L-threo-sphinganines tested in human Multiple Myeloma (a cancer of the blood and bone marrow) cell line, RPMI-8226.

[8] = system: T98G Glioblastoma multiforme cell line; assay: DIMSCAN cytotoxicity, fenretinide + L-threo-sphinganines 3:1 (Example B6); conditions: 96 h
Procedure: as §1, §2
Fenretinide and L-threo-sphinganines tested in human Glioblastoma multiforme (brain cancer) cell line, T98G.

[9] = 4-HPR 1.5 μM + L-threo-sphinganine 0.5 μM
[10] = 4-HPR 3 μM + L-threo-sphinganine 1 μM
[11] = 4-HPR 6 μM + L-threo-sphinganine 2 μM
[12] = 4-HPR 9 μM + L-threo-sphinganine 3 μM

## CCCCCCCCCCCCCC[C@H](O)[C@@H](N)CO [C17, (2S,3S)-2-amino-1,3-heptadecanediol]
[1]; [9]
  CI: 1.5
  Fa: 0.171
[1]; [10]
  CI: 1.7
  Fa: 0.311
[1]; [11]
  CI: 0.9
  Fa: 0.714
[1]; [12]
  CI: 0.1
  Fa: 0.990
[2]; [9]
  CI (Combination Index): 1.4
  Fa (fraction affected): 0.232
[2]; [10]
  CI (Combination Index): 1.4
  Fa (fraction affected): 0.529
[2]; [11]
  CI (Combination Index): 0.2
  Fa (fraction affected): 0.996
[2]; [12]
  CI (Combination Index): >0.1
  Fa (fraction affected): 1.000
[3]; [9]
  CI (Combination Index): 0.6
  Fa (fraction affected): 0.462
[3]; [10]
  CI (Combination Index): 0.4
  Fa (fraction affected): 0.874
[3]; [11]
  CI (Combination Index): 0.6
  Fa (fraction affected): 0.928
[3]; [12]
  CI (Combination Index): 0.8
  Fa (fraction affected): 0.941
[4]; [9]
  CI (Combination Index): 1.3
  Fa (fraction affected): 0.134
[4]; [10]
  CI (Combination Index): 1.5
  Fa (fraction affected): 0.35
[4]; [11]
  CI (Combination Index): 0.9
  Fa (fraction affected): 0.901
[4]; [12]
  CI (Combination Index): 0.4
  Fa (fraction affected): 0.991
[5]; [9]
  CI: 0.7
  Fa: 0.214
[5]; [10]
  CI: 0.9
  Fa: 0.338
[5]; [11]
  CI: 0.8
  Fa: 0.623
[5]; [12]
  CI: 0.5
  Fa: 0.862
[6]; [9]
  CI (Combination Index): 0.5
  Fa (fraction affected): 0.188
[6]; [10]
  CI (Combination Index): 0.5
  Fa (fraction affected): 0.796
[6]; [11]
  CI (Combination Index): 0.7
  Fa (fraction affected): 0.962
[6]; [12]
  CI (Combination Index): 0.7
  Fa (fraction affected): 0.998
[7]; [9]
  CI (Combination Index): 1.12
  Fa (fraction affected): 0.549
[7]; [10]
  CI (Combination Index): 1.00
  Fa (fraction affected): 0.859
[7]; [11]
  CI (Combination Index): 0.43
  Fa (fraction affected): 0.993
[7]; [12]
  CI (Combination Index): >0.1
  Fa (fraction affected): 1.000
[8]; [9]
  CI (Combination Index): 1.7
  Fa (fraction affected): 0.447
[8]; [10]
  CI (Combination Index): 0.3
  Fa (fraction affected): 0.887
[8]; [11]
  CI (Combination Index): 0.3
  Fa (fraction affected): 0.944
[8]; [12]
  CI (Combination Index): 0.2
  Fa (fraction affected): 0.980
